Measured values reported in article PMC3086806, “Mining a Cathepsin Inhibitor Library for New Antiparasitic Drug Leads” (PLoS Neglected Tropical Diseases, 2011).
pIC50, pKi: −log10 of the molar value. Like-named read-outs stand apart in the source and are kept apart here.

What was measured:
[1] = molecular target: human cathepsin L; set-up: method as in data provided by Celera Genomics; conditions: historical data; ref data provided by Celera Genomics; read-out: Ki catL; cited from earlier work
[2] = test system: W2-strain P. falciparum parasites; assay: P. falciparum growth inhibition assay; type: cell-based, Plasmodium falciparum; conditions: for GI50: Plasmodium falciparum, read-out: GI50 P. falc. W2
Protocol: The growth inhibition assay for P. falciparum was conducted as described previously. W2-strain P. falciparum parasites (1% parasitemia, 2% hematocrit) were cultured at 37°C in human red blood cells under the atmosphere of 3% O2, 5% CO2 balance N2 in 0.2 mL of per well in medium RPMI-1640 supplemented with 10% human serum in duplicate 96-well flat bottom culture plates in the presence of inhibitors. Tested compounds were serially diluted 1∶3 in the range 10,000 – 4.6 nM, with maximum DMSO concentration of 0.1%. Following 48 hours of incubation, the medium was removed and the cells were fixed in 2% formaldehyde in PBS. Parasite growth was evaluated by flow cytometry on a FACsort (Becton Dickinson) equipped with AMS-1 loader (Cytek Development) after staining with 1 nM DNA dye YOYO-1(Molecular Probes) in 100 mM NH4Cl, 0.8% NaCl. Parasitemias were determined from dot plots (forward scatter vs. fluorescence) using […] software (Becton Dickinson). IC50 values for growth inhibition were determined from plots of percentage control parasitemia over inhibitor concentration using GraphPad Prism software.

[3] = Jurkat cell cytotoxicity assay; type: cell-based; conditions: human, Jurkat cells (clone E6-1), read-out: Cytotoxicity (% inhibition at 10 µM) Jurkat cells
Protocol: (§1) Jurkat cells (clone E6-1) were grown in complete RPMI-1640 medium containing 10% FBS, 50 U/mL penicillin and 50 µg/mL streptomycin (Invitrogen) at 37°C under a humidified atmosphere and 5% CO2. For cytotoxicity testing, cells were diluted to 1×10^5 per ml in complete RPMI-1640 medium. Test compound stocks were prepared in 100% DMSO and screened at 10 µM against cells (1×10^4 cells per well) in sterile Greiner 96-well flat white opaque culture plates (0.5% final DMSO concentration). The 0% inhibition control wells contained 0.5% DMSO while 100% inhibition control wells contained 40 µM staurosporine. After compound addition, plates were incubated for 40 hr at 37°C. At the end of the incubation period, 50 µL of CellTiter-Glo™ reagent (Promega Inc., Madison, WI, USA) was added to each well and plates were placed on an orbital shaker at room temperature for 2 min to induce lysis. After a further 10 min incubation without shaking to stabilize the signal, the ATP-bioluminescence of each well was determined using an Analyst HT plate reader (Molecular Devices, Sunnyvale, CA, USA). Calculations of percentage inhibition and IC50 were performed similar to those in the T. brucei brucei assay.

[4] = molecular target: T1, falcipain-2 (Plasmodium falciparum, UniProt Q8I6U4); assay: Falcipain-2 protease inhibition assay (Z-Leu-Arg-AMC); type: biochemical
T1 construct: made in house
T1 sequence (Q8I6U4 244-484): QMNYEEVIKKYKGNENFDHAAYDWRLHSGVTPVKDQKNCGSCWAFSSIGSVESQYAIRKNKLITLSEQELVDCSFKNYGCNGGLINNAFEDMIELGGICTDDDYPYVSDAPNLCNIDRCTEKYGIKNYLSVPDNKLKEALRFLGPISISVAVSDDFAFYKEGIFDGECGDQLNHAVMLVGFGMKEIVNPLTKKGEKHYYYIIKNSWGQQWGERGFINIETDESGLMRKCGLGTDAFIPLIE
Protocol: (§2) Recombinant cruzain, rhodesain, TbCatB, falcipain-2 and falcipain-3 were expressed as described previously, [39], [40], [41], [42]. Inhibitor stock solutions were prepared in DMSO and screened at 0.1 µM for cruzain and rhodesain, 1 µM for TbCatB and 50 nM for falcipain-3 (0.5% DMSO in assay). […] Protease inhibition assays for cruzain and rhodesain were carried out in 96 well plate format as described previously. Cruzain (4 nM), rhodesain (4 nM) or TbCatB (258 nM) was incubated with test compound in 100 mM sodium acetate, pH 5.5, containing 5 mM DTT and 0.01% Triton X-100 (buffer A), for 5 min at room temperature (the higher concentration of TbCatB was required due to its lower intrinsic activity against the fluorogenic substrate). Then buffer A containing Z-Phe-Arg-AMC (Bachem) was added to enzyme-compound mixture to give 10 µM substrate in a final assay volume of 200 µL. The rate of free AMC release was measured at excitation and emission wavelengths of 355 and 460 nm, respectively, with a microtiter plate spectrofluorimeter (SpectraMax M5, Molecular Devices) for 3 min. Percentage inhibition of test compound was calculated relative to the DMSO control (0% inhibition control). IC50 values were determined with Prism 4 software (GraphPad, San Diego, CA) using sigmoidal dose-response variable slope model.
(§3) Protease inhibition assays for falcipain-2 and falcipain-3 were carried out in 96 well plate format as described previously, [43] with modification for end-point readout. Falcipain-2 (21 nM) or falcipain-3 (78 nM) was incubated with test compound for 10 min at room temperature in 200 mM sodium acetate, pH 6, 10 mM DTT and 3.6% glycerol and 0.01% Triton X-100 (buffer B). Then buffer B containing Z-Leu-Arg-AMC (Bachem) was added to the enzyme-compound mixture to give 25 µM substrate in a final assay volume of 200 µL. After 15 min, 50 µL of 5 M acetic acid was added to each well to stop the reaction. End-point fluorescence was read in a spectrofluorimeter as above. The 0% inhibition control wells contained DMSO while 100% inhibition control wells contained 50 µM E-64 (Sigma). Percentage inhibition of test compound was calculated relative to the controls and IC50 curve fitting was performed with Prism 4 software as above.

[5] = molecular target: T2, falcipain-3 (Plasmodium falciparum, UniProt Q8IIL0); assay: Falcipain-3 protease inhibition assay (Z-Leu-Arg-AMC); type: biochemical
T2 construct: made in house
T2 sequence (Q8IIL0 243-492): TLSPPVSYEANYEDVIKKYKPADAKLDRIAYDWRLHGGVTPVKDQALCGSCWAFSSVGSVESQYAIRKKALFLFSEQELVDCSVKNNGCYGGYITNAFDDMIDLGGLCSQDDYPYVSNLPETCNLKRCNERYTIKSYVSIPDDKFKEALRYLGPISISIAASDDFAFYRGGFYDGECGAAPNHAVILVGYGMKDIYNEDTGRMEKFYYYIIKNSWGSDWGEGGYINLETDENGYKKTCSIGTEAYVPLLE
Protocol: as §2, §3

[6] = molecular target: human cathepsin B; set-up: method as in data provided by Celera Genomics; conditions: historical data; ref data provided by Celera Genomics; read-out: Ki catB; cited from earlier work
[7] = test system: T. brucei brucei clone 427-221a bloodstream forms; assay: T. brucei brucei growth inhibition assay; type: cell-based; conditions: Trypanosoma brucei; 40 hours
Protocol: The growth inhibition assay for T. brucei brucei was conducted as described previously. Bloodstream forms of the monomorphic T. brucei brucei clone 427-221a were grown in complete HMI-9 medium containing 10% FBS, 10% Serum Plus medium (Sigma Inc. St. Louis Mo. USA), 50 U/mL penicillin and 50 µg/mL streptomycin (Invitrogen) at 37°C under a humidified atmosphere and 5% CO2. […] 5 µL of each dilution was added to 95 µL of diluted parasites (1×10^4 cells per well) in sterile Greiner 96-well flat white opaque culture plates such that the final DMSO concentration was 0.5%. The 0% inhibition control wells contained 0.5% DMSO while 100% inhibition control wells contained 50 µM thimerosal (Sigma). After compound addition, plates were incubated for 40 hours at 37°C. At the end of the incubation period, 50 µL of CellTiter-Glo™ reagent (Promega Inc., Madison, WI, USA) was added to each well and plates were placed on an orbital shaker at room temperature for 2 min to induce lysis. After an additional 10 min incubation without shaking to stabilize the signal, the ATP-bioluminescence of each well was determined using an Analyst HT plate reader (Molecular Devices, Sunnyvale, CA, USA). Raw values were converted to log10 and percentage inhibition calculated relative to the controls. IC50 curve fittings were performed with Prism 4 software as above.

[8] = test system: Jurkat cells (clone E6-1); assay: Jurkat cell cytotoxicity assay; type: cell-based; conditions: 40 hr
Protocol: as §1

[9] = test system: bovine embryo skeletal muscle (BESM) cells; assay: Toxicity toward host BESM cells in the T. cruzi assay; type: cell-based; conditions: 20 µM
Protocol: (§4) The growth inhibition assay for the intracellular T. cruzi was conducted in 96-well plate format as described previously. Briefly, bovine embryo skeletal muscle (BESM) cells (2×10^3/well), seeded overnight, were infected with CA-I/72 T. cruzi trypomastigotes (2×10^3/well). Sixteen hours post-infection, test compounds (serial dilution concentrations starting from 20 µM) were added and assay plates were incubated for an additional 72 hours at 37°C with 5% CO2. Cells were then washed once in PBS, fixed with 4% paraformaldehyde and stained with DNA fluorescent dye DAPI (4′ 6-diamidino-2-phenylindole). The assay plates were then imaged in the IN Cell Analyzer 2000 (GE Healthcare) with the excitation and emission filters set of 350 nm and 460 nm, respectively, to detect DAPI signals. The feature extraction module in IN Cell Developer Toolbox 1.7 software was used to count host nuclei and parasite kinetoplasts by size difference.
All falcipain-3 inhibitors were also tested against falcipain-2. […] The entire library was examined for cytotoxicity to a mammalian cell line (Jurkat) at a concentration of 10 µM, and those compounds studied in the T. cruzi assay were also evaluated for toxicity (at 20 µM) toward the host BESM cells used in that assay. […]

[10] = molecular target: T3, cruzain (Trypanosoma cruzi, UniProt P25779); assay: Cruzain protease inhibition assay (Z-Phe-Arg-AMC); type: biochemical
T3 construct: made in house
T3 sequence (P25779 123-467): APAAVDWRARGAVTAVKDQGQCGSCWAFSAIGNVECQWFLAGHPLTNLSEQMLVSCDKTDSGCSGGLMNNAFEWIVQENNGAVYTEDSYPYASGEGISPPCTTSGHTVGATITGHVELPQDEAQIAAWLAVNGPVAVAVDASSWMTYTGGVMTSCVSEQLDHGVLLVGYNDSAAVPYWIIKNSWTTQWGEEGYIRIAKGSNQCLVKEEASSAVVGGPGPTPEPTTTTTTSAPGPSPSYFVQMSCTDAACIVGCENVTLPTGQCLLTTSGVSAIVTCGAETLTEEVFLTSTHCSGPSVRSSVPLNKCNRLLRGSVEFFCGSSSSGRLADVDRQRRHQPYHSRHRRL
Protocol: as §2

[11] = test system: intracellular T. cruzi (CA-I/72) in BESM cells; assay: T. cruzi amastigote growth inhibition assay; type: cell-based; conditions: Trypanosoma cruzi; infected BESM cells, 72 hours
Protocol: as §4

[12] = molecular target: T4, rhodesain (Trypanosoma brucei rhodesiense, UniProt Q95PM0); assay: Rhodesain protease inhibition assay (Z-Phe-Arg-AMC); type: biochemical
T4 construct: made in house
T4 sequence (Q95PM0 entry or part of it): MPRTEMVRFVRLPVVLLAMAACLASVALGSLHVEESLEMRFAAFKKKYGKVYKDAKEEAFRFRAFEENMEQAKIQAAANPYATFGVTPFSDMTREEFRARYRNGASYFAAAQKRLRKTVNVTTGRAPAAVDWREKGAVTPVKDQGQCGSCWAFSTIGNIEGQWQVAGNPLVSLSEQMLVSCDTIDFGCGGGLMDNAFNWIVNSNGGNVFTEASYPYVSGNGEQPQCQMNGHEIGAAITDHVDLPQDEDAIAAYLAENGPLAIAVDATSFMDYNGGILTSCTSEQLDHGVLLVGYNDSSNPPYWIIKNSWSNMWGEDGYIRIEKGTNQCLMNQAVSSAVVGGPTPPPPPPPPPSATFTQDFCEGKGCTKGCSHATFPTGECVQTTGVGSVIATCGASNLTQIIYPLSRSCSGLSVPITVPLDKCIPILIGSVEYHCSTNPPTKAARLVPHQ
Protocol: as §2

[13] = molecular target: T5, TbCatB (Trypanosoma brucei, UniProt Q6R7Z5); assay: TbCatB protease inhibition assay (Z-Phe-Arg-AMC); type: biochemical
T5 construct: made in house
T5 sequence (Q6R7Z5 23-340): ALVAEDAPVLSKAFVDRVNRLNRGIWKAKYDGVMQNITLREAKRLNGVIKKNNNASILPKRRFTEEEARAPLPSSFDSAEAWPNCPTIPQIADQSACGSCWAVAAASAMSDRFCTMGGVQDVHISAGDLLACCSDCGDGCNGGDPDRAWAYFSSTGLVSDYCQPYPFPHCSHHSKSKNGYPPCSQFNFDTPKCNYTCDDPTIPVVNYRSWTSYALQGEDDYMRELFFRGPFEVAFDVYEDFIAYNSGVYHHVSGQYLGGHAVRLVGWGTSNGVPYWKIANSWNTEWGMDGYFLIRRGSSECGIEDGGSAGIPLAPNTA
Protocol: as §2

pIC50 [4]	pIC50 ([5]; read-out: IC50 falcipain-3)	Structure (SMILES)	pKi [1]	GI50 ([2]; cultured W2 strain, 48 hours)	cytotoxicity at 40 h, 10 µM [3]	pKi [6]	GI50 ([2]; W2, 48 h)	pIC50 [5]	GI50 P. falc. W2 ([2]; cultured W2 strain, 48 hours)	GI50 [7]	Cytotoxicity (% inhibition at 10 µM) Jurkat cells [8]	Inhibition of growth of BESM cells [9]	pIC50 [10]	GI50 [11]	pIC50 [12]	pIC50 [13]
8.12	7.40	CC(C)CC(NC(=O)N1CCOCC1)C(=O)NC(C=CS(=O)(=O)c1ccccc1)CCc1ccc(O)cc1 (stereo not drawn) [Compound 18a]	8.52	20 nM	< 5%	6.36										
7.18	7.77	CCCCC(NC(=O)C(CC(C)C)NC(C)=O)C(=O)c1nc2ccccc2o1 (stereo not drawn) [Compound 19c]	6.21	4800 nM	< 5%	6.04										
8.12	7.96	N#CC1(NC(=O)C(CC2CCCCC2)NC(=O)c2cccc(-c3cccc(S(N)(=O)=O)c3)c2)CCS(=O)(=O)CC1 (stereo not drawn) [Compound 20]		170 nM	< 5%				sub-micromolar							
8.70	8.62	CC(C)CC(NC(c1ccc(-c2ccc(S(C)(=O)=O)cc2)cc1)c1nccs1)C(=O)NC1(C#N)CC1 (stereo not drawn) [Compound 21]	7.49	870 nM	< 5%	5.17			sub-micromolar							
		CC(C)CC(NC(=O)c1ccc(-c2csc(Nc3ccncc3)n2)cc1)C(=O)NCCN(CC(C)C)CC(C)C (stereo not drawn) [Compound 22]	7.15		< 5%	5.35				200 nM	did not inhibit the growth	~90%	5.80	800 nM	6.19	
		CCC[C@H](NC(=O)C1(NC(=O)c2ccc(-c3csc(N4CCN(C)CC4)n3)cc2)CCCCC1)C(=O)c1nc2ccccc2o1 [Compound 23a]	5.96		< 5%	6.49				4200 nM			7.52	19000 nM	5.41	7.15
		CCCC[C@H](NC(=O)C1(NC(=O)c2ccc(-c3csc(N4CCN(C)CC4)n3)cc2)CCCCC1)C(=O)c1nc2ccccc2o1 [Compound 23b]	6.55		< 5%	6.21				10500 nM			6.42	7700 nM	5.30	9.00

Structure (SMILES)	pIC50 [4]	pIC50 ([5]; read-out: IC50 falcipain-3)	pKi [1]	GI50 ([2]; cultured W2 strain, 48 hours)	cytotoxicity at 40 h, 10 µM [3]	pKi [6]	GI50 ([2]; W2, 48 h)	pIC50 [5]	GI50 P. falc. W2 ([2]; cultured W2 strain, 48 hours)	GI50 [7]	Cytotoxicity (% inhibition at 10 µM) Jurkat cells [8]	Inhibition of growth of BESM cells [9]	pIC50 [10]	GI50 [11]	pIC50 [12]	pIC50 [13]
CC(C)CC(NC(=O)N1CCOCC1)C(=O)NC(C=CS(=O)(=O)c1ccccc1)CCc1ccccc1 (stereo not drawn) [Compound 18b]	8.44				< 5%	6.68	40 nM	7.54								
